# Target: T1, STK22B (TSSK2) (Homo sapiens, UniProt Q96PF2)
# T1 construct: purchased Thermo Fisher Scientific (Life Technologies) SelectScreen
# Test: SelectScreen Z'LYTE
# Format: biochemical
# Outline: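 NU5455 was profiled across the SelectScreen Broad panel of kinase activity and binding assays. Z'LYTE reactions such as CSF1R ran at apparent Km ATP, while the Adapta CAMK1 assay used ATP listed as 10. Values are given as percent.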
# T1 sequence (Q96PF2 whole entry): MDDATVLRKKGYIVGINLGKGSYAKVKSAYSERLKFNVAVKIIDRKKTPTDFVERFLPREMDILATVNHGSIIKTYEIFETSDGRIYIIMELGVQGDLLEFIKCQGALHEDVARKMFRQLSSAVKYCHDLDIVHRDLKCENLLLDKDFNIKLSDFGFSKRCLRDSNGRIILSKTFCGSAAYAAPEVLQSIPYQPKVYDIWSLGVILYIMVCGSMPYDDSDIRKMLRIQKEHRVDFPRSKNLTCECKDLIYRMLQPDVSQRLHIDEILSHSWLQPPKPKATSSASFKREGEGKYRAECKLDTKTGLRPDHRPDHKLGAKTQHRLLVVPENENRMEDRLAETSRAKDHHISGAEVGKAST
smiles,measurement,value
CN(C(=O)CN1CCOCC1)c1ccc2sc3c(-c4cccc5c(=O)cc(N6CC7CCC(C6)O7)oc45)cccc3c2c1 [NU5455],inhibition at 1 µM,2.8%

# From paper PMC6934184, “Selective DNA-PKcs inhibition extends the therapeutic index of localized radiotherapy and chemotherapy” (The Journal of Clinical Investigation, 2019)
